Read-outs that look alike come from different tables or passages of the source.
Assays:
GII.4-Pro HOV [1] = system: T1, GII.4-Pro HOV; assay: FRET protease assay, time-dependent inhibition; assay type: biochemical, Norovirus norwalkense; details: covalent; GII FRET peptide substrate; pH 8.0, 37 °C, 10 mM DTT; corrected for substrate competition
T1 construct: mature protease cut from ORF1 polyprotein; pET-46b(+) His-tag with thrombin site, E. coli XJb(DE3); tag cut with thrombin when used

GI.1-Pro [2] = target: T2, GI.1-Pro (Norovirus Hu/1968/US, UniProt Q83883, R1212A); assay type: biochemical; details: covalent; tight-binding conditions, kchem approximation; GI.1 FRET peptide substrate; pH 8.0, 37 °C, 10 mM DTT; corrected for substrate competition
T2 construct: gene ORF1

GII.4-Pro Sydney [3] = target: T3, GII.4-Pro Sydney (Norovirus Hu/GII.4/Sydney/NSW0514/2012/AU, UniProt K4L8Z7, R1120A); details: read-out: KI
Text: (§1) FRET protease assay, time-dependent inhibition on GII.4-Pro Sydney

GI.1-Pro [4] = target: T4, GI.1-Pro (Norovirus Hu/1968/US, UniProt Q83883); assay: FRET protease assay, time-dependent inhibition; assay type: biochemical
T4 construct: gene ORF1; mature protease cut from ORF1 polyprotein; pET-46b(+) His-tag with thrombin site, E. coli XJb(DE3); tag cut with thrombin when used
Text: FRET protease assay, time-dependent inhibition on GI.1-Pro

GII.4-Pro HOV [5] = system: GII.4-Pro HOV
Text: FRET protease assay, time-dependent inhibition on GII.4-Pro HOV

GII.4-Pro Sydney [6] = target: T3, GII.4-Pro Sydney; assay: biochemical; details: read-out: kinact/KI (M^-1s^-1)
Text: as §1

GII.3-Pro [7] = target: T5, GII.3-Pro (Norovirus Hu/Texas/TCH04-577/2004/US, UniProt B2DD26); assay: FRET protease assay, time-dependent inhibition; assay type: biochemical; details: covalent; GII FRET peptide substrate; pH 8.0, 37 °C, 10 mM DTT; corrected for substrate competition
T5 construct: mature protease cut from ORF1 polyprotein; tag cut with 3C protease when used

GII.4-Pro Sydney [8] = target: T6, GII.4-Pro Sydney (Norovirus Hu/GII.4/Sydney/NSW0514/2012/AU, UniProt K4L8Z7); assay: FRET protease assay, time-dependent inhibition; assay type: biochemical; details: covalent; GII FRET peptide substrate; pH 8.0, 37 °C, 10 mM DTT; corrected for substrate competition
T6 construct: mature protease cut from ORF1 polyprotein; tag cut with 3C protease when used

[9] = target: T7, (Norovirus norwalkense, UniProt A9YYE3); assay: FRET protease assay, time-dependent inhibition; assay type: biochemical
T7 construct: mature protease cut from ORF1 polyprotein; pET-46b(+) His-tag with thrombin site, E. coli XJb(DE3); tag cut with thrombin when used

GII.3-Pro [10] = target: T5, GII.3-Pro; assay: FRET protease assay, time-dependent inhibition; assay type: biochemical
GII.4-Pro Sydney [11] = target: T6, GII.4-Pro Sydney; assay: FRET protease assay, time-dependent inhibition; assay type: biochemical
GII.3-Pro [12] = target: GII.3-Pro (Norovirus Hu/Texas/TCH04-577/2004/US, UniProt B2DD26, R1120A); details: read-out: KI

Which KI (inactivation) (GII.4-Pro HOV [1]) does the source give for CCOC(=O)/C=C/[C@H](C[C@@H]1CCNC1=O)NC(=O)[C@@H](CC(=O)[C@@H](NC(=O)c1cc(C)on1)C(C)C)Cc1ccc(F)cc1 [rupintrivir] here?
Its KI (inactivation) is 457 ± 52 µM.

What about the “kinact/KI” value (GI.1-Pro [2]) of the same molecule?
The value was 233.5 ± 8.8 M⁻¹ s⁻¹.

What about the KI (inactivation) (GII.4-Pro Sydney [3]) of the same molecule?
Its KI (inactivation) is 438 ± 299 µM.

What about the kinact/KI (GI.1-Pro [4]) of the same molecule?
Its kinact/KI is 294 ± 5.7 M⁻¹ s⁻¹.

And the “kinact/KI” value (GII.4-Pro HOV [5])?
Its value is 6.52 ± 0.77 M⁻¹ s⁻¹.

What about the KI (inactivation) (GII.4-Pro HOV [5]; read-out: KI) of the same molecule?
The KI (inactivation) was 564 ± 513 µM.

And the kinact/KI (GII.4-Pro Sydney [6])?
Its kinact/KI is 4.53 ± 0.59 M⁻¹ s⁻¹.

And the KI (inactivation) (GII.3-Pro [7])?
Its KI (inactivation) is 1.31 mM.

What about the KI (inactivation) (GII.4-Pro Sydney [8]) of the same molecule?
Its KI (inactivation) is 1.09 mM.

What about the kinact/KI [9] of the same molecule?
The kinact/KI was 5.78 ± 0.21 M⁻¹ s⁻¹.

And the kinact/KI (GII.3-Pro [10])?
Its kinact/KI is 5.34 ± 0.52 M⁻¹ s⁻¹.

What about the kinact/KI (GII.4-Pro Sydney [11]) of the same molecule?
Its kinact/KI is 3.73 ± 0.28 M⁻¹ s⁻¹.

And the KI (inactivation) (GII.3-Pro [12])?
Its KI (inactivation) is 94 ± 38 µM.

— article PMC11852804, “Conformational flexibility is a critical factor in designing broad-spectrum human norovirus protease inhibitors” (Journal of Virology, 2025)
